These results are taken from PMC5408584 (Lipids, 2016).

Assay [1] deals with T1, rat FABP1 (Rattus norvegicus, UniProt P02692).
T1 sequence (P02692 1-127): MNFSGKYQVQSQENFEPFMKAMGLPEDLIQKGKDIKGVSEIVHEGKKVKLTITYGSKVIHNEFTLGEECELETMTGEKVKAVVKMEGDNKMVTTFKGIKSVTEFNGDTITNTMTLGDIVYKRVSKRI
The conditions noted are these: read-out: Ki, displacement of FABP1-bound cis-parinaroyl-CoA; rat FABP1, mean ± SE n=3, Fig 1A; cited from earlier work.

Assay [2] concerns the target T2, human WT FABP1 (Homo sapiens, UniProt P07148).
T2 sequence (P07148 1-127): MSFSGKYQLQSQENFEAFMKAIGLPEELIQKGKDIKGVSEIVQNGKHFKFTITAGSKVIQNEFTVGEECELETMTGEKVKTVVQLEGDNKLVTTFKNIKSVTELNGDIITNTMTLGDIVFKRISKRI
As to the kind of experiment: cis-parinaroyl-CoA fluorescent ligand displacement assay, human FABP1. Type of assay: binding. As to conditions: AEA 0–6μM, Fig 1B.

Assay [3] addresses T2, human WT FABP1. The assay is described as follows: DAUDA fluorescent ligand displacement assay, human FABP1. Format: binding. The conditions noted are these: AEA 0–6μM, Fig 1B.
In assay [4] the target is human FABP1. The conditions noted are these: read-out: Ki (printed Kids), ANS displacement; cited from earlier work.
The subject of the next assay is L-cells. As to the kind of experiment: Cellular uptake of NBD-labeled probes by confocal imaging. Type of assay: cell-based, murine. As to conditions: Fig 3B.
Assay [5] concerns the target T1, rat FABP1. The conditions noted are these: cited from earlier work; for number of ligand molecules bound per FABP1 (binding sites): rat FABP1, fractional saturation curves, Fig 2B; for Kd: read-out: Kd, direct binding of NBD-labeled ligand, rat FABP1, mean ± SE n=3, Fig 2B.
Assay [6] deals with human FABP1. As to conditions: cited from earlier work.
The test system of another assay is human FABP1 T94A variant. As to conditions: T94A variant vs WT human FABP1; cited from earlier work.

The term Ki denotes a dissociation constant, usually derived from enzyme kinetics or from competition with a known ligand. As a reminder, the Kd is the concentration at which binding is half-saturated.

Consider `CCCCC/C=C\C/C=C\C/C=C\C/C=C\CCCC(=O)OC(CO)CO` [2-AG, 2-arachidonoylglycerol], for which the Ki at rat FABP1 [1] is 205 ± 3 nM.

On to `CCCCC/C=C\C/C=C\C/C=C\C/C=C\CCCC(=O)NCCO` [AEA, N-arachidonoylethanolamide], for which the “displacement of human FABP1 bound cis-parinaroyl CoA” value on human WT FABP1 [2] is on record as “did not displace”. Moreover, the “displacement of human FABP1 bound DAUDA” value on human WT FABP1 [3] is listed as “did displace”. Further, the Ki on rat FABP1 [1] was 400 ± 20 nM.

With `CCCCC/C=C\C/C=C\C/C=C\C/C=C\CCCC(=O)O` [ARA, arachidonic acid], on human FABP1 [4], the Ki was 113 ± 6 nM.

As for `O=C(CCC/C=C\C/C=C\C/C=C\C/C=C\CCCCCNc1ccc([N+](=O)[O-])c2nonc12)OC(CO)CO` [NBD-2-AG], in the assay on L-cells, the “maximal uptake, fold higher than that of NBD-ARA” value is reported as “at least 1.6 fold”. At rat FABP1 [5], the “number of ligand molecules bound per FABP1 (binding sites)” value was “single” and the Kd is 250 ± 50 nM.

Regarding `O=C(CCC/C=C\C/C=C\C/C=C\C/C=C\CCCCCNc1ccc([N+](=O)[O-])c2nonc12)NCCO` [NBD-AEA, 20-[(7-nitro-2-1,3-benzoxadiazol-4-yl)amino] arachidonoylethanolamide], in the assay with L-cells, the “maximal uptake, fold higher than that of NBD-ARA” value is reported as “at least 1.6 fold”. Moreover, at rat FABP1 [5], the “number of ligand molecules bound per FABP1 (binding sites)” value is reported as “single” and the Kd was 800 ± 200 nM.

Consider `O=C(O)CCC/C=C\C/C=C\C/C=C\C/C=C\CCCCCNc1ccc([N+](=O)[O-])c2nonc12` [NBD-ARA, 20-[(7-nitro-2-1,3-benzoxadiazol-4-yl)amino] arachidonic acid], for which, at rat FABP1 [5], the “number of ligand molecules bound per FABP1 (binding sites)” value is on record as “two” and the Kd is 660 ± 60 nM.

`CC(C)CCC[C@@H](C)[C@H]1CC[C@H]2[C@@H]3CC=C4C[C@@H](O)CC[C@]4(C)[C@H]3CC[C@]12C` [cholesterol]: the “fold weaker affinity of human FABP1 compared to rat FABP1” value with human FABP1 [6] (human vs rat FABP1) was 3.5 fold. For the same compound, in the assay on human FABP1 T94A variant, the “fold increase in affinity of human FABP1 by T94A substitution” value is 3 fold.

Take `CCCCCCCC/C=C\CCCCCCCC(=O)SCCNC(=O)CCNC(=O)[C@H](O)C(C)(C)COP(=O)(O)OP(=O)(O)OC[C@H]1O[C@@H](n2cnc3c(N)ncnc32)[C@H](O)[C@@H]1OP(=O)(O)O` [oleoyl-CoA]: the “fold higher affinity of human FABP1 compared to rat FABP1” value in the assay with human FABP1 [6] (human vs rat FABP1 within the same study) was 2.2 fold.
